According to patent US20250250629A1, “NUCLEOTIDE CYCLIC CLEAVABLE MOIETIES AND USES THEREOF” (Singular Genomics Systems, Inc., priority 2022, published 2025):

Experiment: Storage stability of reversibly terminated nucleotides (percentage of deblocked nucleotides, in-house assay)
Assay type: physicochemical
Conditions: for percentage of deblocked nucleotides (3′-OH, loss of reversible terminator) over time: stored at 20° C. over 21 days (vs. 4° C.)
Description: FIGS. 1A-1B depict storage stability studies of nucleotides stored at both 4° C. and 20° C. over a period of 21 days. The stability of the reversibly terminated nucleotide can be measured by the % of nucleotides that lose the reversible terminator moiety (e.g., via spontaneous fragmentation or reduction to yield a 3′-OH). […] (black) and 20° C. (light). […] (black) and 20° C. (light).
The stability of a reversibly terminated nucleotide can be measured by determining the loss of the reversible terminator over time. FIGS. 1A-1B depict the storage stability of nucleotides having a linear disulfide RT and cyclic disulfide RT stored at both 4° C. and 20° C. over a period of 21 days. The linear disulfide RT tested has the structure:
A buffer containing 200 nM of each nucleotide was stored at 4° C. and 20° C. over a period of 21 days and the percentage of deblocked nucleotides (i.e., those having loss of 3′-OH reversible terminator) was determined using an in-house assay. The stability of the reversibly terminated nucleotide can be measured by the % of nucleotides that lose the reversible terminator moiety (e.g., via spontaneous fragmentation or reduction to yield a 3′-OH). […] (black) and 20° C. (light). […] (black) and 20° C. (light). As observed in FIG. 1A, the average percentage of reversible terminator loss is about 0.13%+/−0.05% when stored at 4° C., and is considered relatively stable when stored under these conditions. […] Subsequent storage stability studies indicate the nucleotides are stable, wherein the average percentage of reversible terminator loss is less than about 0.15%, beyond 120 days at both 20° C. and 4° C.

[1] = buffer containing 200 nM nucleotide

average percentage of reversible terminator loss (subsequent storage stability studies, beyond 120 days at 4° C.)	average percentage of reversible terminator loss (subsequent storage stability studies, beyond 120 days at 20° C.)	average percentage of reversible terminator loss (buffer containing 200 nM nucleotide, stored at 4° C. over 21 days)	SMILES	percentage of deblocked nucleotides (3′-OH, loss of reversible terminator) over time [1]
less than 0.15%	less than 0.15%	–	Cc1cn(C2CC(OC3CCCSS3)C(COP(=O)(O)OP(=O)(O)OP(=O)(O)O)O2)c(=O)[nH]c1=O (centres unmarked) [cyclic disulfide RT]	less prone to spontaneously losing the 3′ reversible terminator
–	–	about 0.13%+/−0.05	CSSC(C)OC1CC(n2cc(C)c(=O)[nH]c2=O)OC1COP(=O)(O)OP(=O)(O)OP(=O)(O)O (centres unmarked) [linear disulfide RT, reference compound]	grows over time
